Measured values: US12358899B2, “Thyroid hormone receptor agonists and uses thereof” (XIZANG HAISCO PHARMACEUTICAL CO., LTD., priority 2018, dated 2025)

Test system: C57BL/6cnc mice
Experiment: Synergistic effect of Example 7 with other NASH compounds in mouse model
Type: in vivo
Conditions: NASH mice, single agents, 2-week treatment
Description: There are other candidates being developped for inflammation, metabolism syndromes or NASH These include glucagon-like peptide-1 (GLP-1) receptor agonist liraglutide, peroxisome proliferator-activated receptor-α and -β (PPAR-α/δ) agonist elafibranor, and nuclear erythroid 2-related factor 2 (NRF2) activator bardoxolone methyl (CDDO-Me). These candidates target different proteins and pathways, therefore have different mechanisms of action related to steatosis, inflammation, and fibrosis.
C57BL/6cnc mice were fed with high-fat diet containing 60 kacl % fat and 0.10% methionine (no added choline) (Research Diets, A06071302) for 12 weeks to induce NASH model. After 12-week diet induction, the mice had increased plasma levels of TC, LDL-c, ALT, and fibrosis markers. […] An Example 7 alone group and a vehicle group were also set up for controls. […] After 2-week treatment, serum biochemistry was measured; liver was collected to measure liver TC and TG. Livers were punched in 2 mm diameter and fixed, sectioned and stained with Sirius Red, and the fibrosis and steatosis were scored.

## CSc1ccc(C(=O)/C=C/c2cc(C)c(OC(C)(C)C(=O)O)c(C)c2)cc1 [Elafibranor, reference compound]
  liver weight, liver TC, liver TG, plasma TC, LDL-c, ALT, fibrosis, steatosis: reduced all or some of these parameters
